Results published in US20260216183A1 (SHENZHEN NEWDEL BIOTECH CO., LTD., priority 2023, published 2026).

Columns and labels:
DDR1 = molecular target: T1, DDR1 (Homo sapiens, UniProt Q08345); test: DDR1 enzyme activity assay (HTRF); format: biochemical; details: ATP 25 μM
T1 construct: purchased Carna 08-113
Text: (§2) A kinase phosphorylates a substrate, and an antibody labeled with Eu-CryPtate binds to a phosphorylation site in the substrate; streptavidin-XL665 binds to the substrate biotin; when Eu and XL665 are close, Eu as a donor emits emission light (620 nm) after being excited by a light source (320 nm) and transfers energy resonance to a close XL665 receptor, and the receptor emits emission light (665 nm) after being excited; the specific signal is proportional to the phosphorylated substrate; when an inhibitor is added, the phosphorylation level is inhibited, the emission light at 665 nm is undetectable, and only the emission light at 620 nm is detected, so as to evaluate the level of inhibition of kinase activity by the compound.
Replicate wells were set for the assay. […] 2.5 μL of DDR1 (2.7 nM, 08-113, Carna) solution was transferred to a 384 reaction plate. The plate was centrifuged at 1000 rpm for 60 s using a centrifuge and incubated at 25° C. for 10 min. A mixed solution of 2× biotin-labeled tyrosine kinase substrate (1 μM) and ATP (25 μM) was prepared using the kinase reaction buffer. […] The fluorescence signals at 620 nm (Cryptate) and 665 nm (XL665) were read using a BMG microplate reader. The ratio of the fluorescence signals, i.e., (665 nm/620 nm)×10000, in each well was calculated, and the ratio represented the degree of the kinase activity.

DDR2 = molecular target: T2, DDR2 (Homo sapiens, UniProt Q16832); test: DDR2 enzyme activity assay (HTRF); format: biochemical; details: ATP 25 μM
T2 sequence (Q16832 22-855): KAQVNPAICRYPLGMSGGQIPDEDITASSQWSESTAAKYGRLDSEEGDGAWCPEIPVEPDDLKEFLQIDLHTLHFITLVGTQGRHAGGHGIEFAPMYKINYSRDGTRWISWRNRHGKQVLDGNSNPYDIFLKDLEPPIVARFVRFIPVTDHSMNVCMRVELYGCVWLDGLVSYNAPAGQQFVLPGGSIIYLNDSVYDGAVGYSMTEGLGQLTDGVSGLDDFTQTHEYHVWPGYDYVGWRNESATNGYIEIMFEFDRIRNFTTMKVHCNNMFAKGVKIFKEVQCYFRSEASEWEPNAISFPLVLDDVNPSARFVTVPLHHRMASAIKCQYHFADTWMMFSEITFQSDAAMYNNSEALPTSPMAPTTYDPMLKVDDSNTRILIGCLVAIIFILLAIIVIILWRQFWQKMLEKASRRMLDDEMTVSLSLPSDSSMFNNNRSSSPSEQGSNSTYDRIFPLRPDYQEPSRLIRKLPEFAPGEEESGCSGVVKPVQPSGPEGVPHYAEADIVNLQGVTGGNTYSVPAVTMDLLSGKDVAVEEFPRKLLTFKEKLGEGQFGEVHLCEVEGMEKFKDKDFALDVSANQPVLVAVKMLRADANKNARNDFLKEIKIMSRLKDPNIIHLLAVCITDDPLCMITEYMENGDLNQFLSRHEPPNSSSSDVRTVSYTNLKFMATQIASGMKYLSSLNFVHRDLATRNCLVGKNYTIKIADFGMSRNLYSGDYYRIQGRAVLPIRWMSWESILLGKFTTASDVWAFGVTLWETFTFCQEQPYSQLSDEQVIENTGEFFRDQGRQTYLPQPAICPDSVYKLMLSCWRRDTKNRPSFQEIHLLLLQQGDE
Experimental: Replicate wells were set for the assay. […] 2.5 μL of DDR2 (1.3 nM, 08-114, Carna) solution was transferred to a 384 reaction plate. The plate was centrifuged at 1000 rpm for 60 s using a centrifuge and incubated at 25° C. for 10 min. A mixed solution of 2× biotin-labeled tyrosine kinase substrate (1 μM) and ATP (25 μM) was prepared using the kinase reaction buffer. 2.5 μL of the mixed solution of the substrate and ATP was added to the reaction plate to start the reaction, and the plate was centrifuged at 1000 rpm for 60 s using the centrifuge. The plate was sealed with a plate-sealing film and incubated at 25° C. for 40 min. 5 μL of a mixed solution of Eu-CryPtate-labeled anti-tyrosine kinase antibody and streptavidin-XL665 was added to each well of the reaction plate. The plate was centrifuged at 1000 rpm for 1 min and incubated at 25° C. for 60 min. The fluorescence signals at 620 nm (Cryptate) and 665 nm (XL665) were read using a BMG microplate reader. The ratio of the fluorescence signals, i.e., (665 nm/620 nm)×10000, in each well was calculated, and the ratio represented the degree of the kinase activity.

[1] = test system: OXA-induced atopic dermatitis mouse model; test: OXA-induced atopic dermatitis mouse model, oral administration; format: in vivo, Balb/c mice; details: for Inflammatory cell content in right ear tissue, Significance level: compared to G2 (vehicle); for Clinical scores of dorsal skin, Significance level / Rate of change in the thickness of the pinna of the right ear, Significance level / Thickness of dermis layer of right ear, Significance level / Thickness of epidermal layer of right ear, Significance level / Pinna thickness change rate at time point, Significance level: vs group 2 (vehicle); for Number of inflammatory cells per mm: right ear tissue, Mean ± SEM
Experimental: (§1) (1) Screening and grouping: 60 female 6- to 8-week-old Balb/c mice in total were used as experimental animals in this project, which were obtained from Shanghai Model Organisms Center, Inc. The first grouping was done before the start of the experiment. […] (2) Animal modeling: The day when the first grouping was done was designated as day (−7). The backs of the mice were depilated with depilatory cream (area of about 2 cm×3 cm). […] The 1% OXA solution was prepared by weighing 0.1 g of OXA powder, adding 10 mL of an acetone solution, mixing well, and dissolving. […] (3) The administration mode of the test substance: […] The mice were sacrificed on day 21. The skin of the right ear of the mice was left for pathological examination. The thickness of the epidermal layer and inflammatory cell infiltration were measured by H&E staining, and the thickness of the dermis layer was measured by Masson staining.

[2] = Mouse body weight change in the oral administration experiment; format: in vivo, Balb/c mice; details: vs group 2 (vehicle)
Experimental: as §1

TRKA = molecular target: T3, TRKA (Homo sapiens, UniProt P04629); test: TRKA enzyme activity assay (HTRF); format: biochemical; details: ATP 25 μM
T3 construct: purchased Carna 08-186
Text: as §2
Replicate wells were set for the assay. 25 nL of the compound was transferred to a 384 reaction plate (Catalog No. 784075, Greiner) using Echo 665. […] 2.5 μL of TRKA (1.5 nM, 08-186, Carna) solution was transferred to a 384 reaction plate. The plate was centrifuged at 1000 rpm for 60 s using a centrifuge and incubated at 25° C. for 10 min. […] The fluorescence signals at 620 nm (Cryptate) and 665 nm (XL665) were read using a BMG microplate reader. The ratio of the fluorescence signals, i.e., (665 nm/620 nm)×10000, in each well was calculated, and the ratio represented the degree of the kinase activity.

CSF1R = molecular target: T4, CSF1R (Homo sapiens, UniProt P07333); test: CSF1R enzyme activity assay (HTRF); format: biochemical; details: ATP 25 μM
T4 construct: purchased Carna 08-114
T4 sequence (P07333 538-972 limits assumed): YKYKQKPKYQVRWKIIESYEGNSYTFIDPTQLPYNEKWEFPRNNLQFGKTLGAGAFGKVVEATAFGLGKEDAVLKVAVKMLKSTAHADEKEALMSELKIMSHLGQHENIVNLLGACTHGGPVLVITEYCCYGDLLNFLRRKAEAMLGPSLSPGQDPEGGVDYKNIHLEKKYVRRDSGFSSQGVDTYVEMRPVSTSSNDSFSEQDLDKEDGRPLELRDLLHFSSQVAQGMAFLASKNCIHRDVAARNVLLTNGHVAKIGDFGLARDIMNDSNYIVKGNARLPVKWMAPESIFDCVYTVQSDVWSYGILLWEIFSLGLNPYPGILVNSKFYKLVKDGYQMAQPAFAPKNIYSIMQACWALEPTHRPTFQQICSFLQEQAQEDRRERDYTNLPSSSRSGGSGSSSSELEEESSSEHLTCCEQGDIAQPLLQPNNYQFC
Text: as §2
Replicate wells were set for the assay. […] 2.5 μL of CSF1R (1.3 nM, 08-114, Carna) solution was transferred to a 384 reaction plate. The plate was centrifuged at 1000 rpm for 60 s using a centrifuge and incubated at 25° C. for 10 min. A mixed solution of 2× biotin-labeled tyrosine kinase substrate (1 μM) and ATP (25 μM) was prepared using the kinase reaction buffer. […] The fluorescence signals at 620 nm (Cryptate) and 665 nm (XL665) were read using a BMG microplate reader. The ratio of the fluorescence signals, i.e., (665 nm/620 nm)×10000, in each well was calculated, and the ratio represented the degree of the kinase activity.

TRKC = molecular target: T5, TRKC (Homo sapiens, UniProt Q16288); test: TRKC enzyme activity assay (HTRF); format: biochemical; details: ATP 25 μM
T5 construct: purchased Carna 08-197
T5 sequence (Q16288 32-839): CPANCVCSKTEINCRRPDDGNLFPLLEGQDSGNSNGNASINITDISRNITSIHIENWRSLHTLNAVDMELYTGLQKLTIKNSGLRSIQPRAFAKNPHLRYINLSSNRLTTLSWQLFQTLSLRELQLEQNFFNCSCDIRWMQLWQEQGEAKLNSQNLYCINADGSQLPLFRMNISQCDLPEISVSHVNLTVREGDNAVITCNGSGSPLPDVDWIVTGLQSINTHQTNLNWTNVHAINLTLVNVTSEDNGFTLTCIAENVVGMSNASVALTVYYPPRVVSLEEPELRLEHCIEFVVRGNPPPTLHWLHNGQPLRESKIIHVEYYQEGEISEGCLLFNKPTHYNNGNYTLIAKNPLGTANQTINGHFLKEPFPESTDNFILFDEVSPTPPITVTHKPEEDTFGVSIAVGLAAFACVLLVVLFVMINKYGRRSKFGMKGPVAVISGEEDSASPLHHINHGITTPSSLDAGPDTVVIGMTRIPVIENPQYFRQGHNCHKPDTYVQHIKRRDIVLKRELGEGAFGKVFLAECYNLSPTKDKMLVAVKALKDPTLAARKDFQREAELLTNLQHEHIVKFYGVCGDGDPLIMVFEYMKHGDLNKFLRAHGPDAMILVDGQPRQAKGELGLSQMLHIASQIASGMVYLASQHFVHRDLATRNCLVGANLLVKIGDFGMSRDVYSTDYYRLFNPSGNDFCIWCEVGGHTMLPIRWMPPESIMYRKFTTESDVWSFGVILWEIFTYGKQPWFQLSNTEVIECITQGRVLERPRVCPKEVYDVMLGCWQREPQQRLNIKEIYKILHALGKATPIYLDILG
Text: as §2
Replicate wells were set for the assay. […] 2.5 μL of TRKC (1.5 nM, 08-197, Carna) solution was transferred to a 384 reaction plate. The plate was centrifuged at 1000 rpm for 60 s using a centrifuge and incubated at 25° C. for 10 min. A mixed solution of 2× biotin-labeled tyrosine kinase substrate (1 μM) and ATP (25 μM) was prepared using the kinase reaction buffer. […] The fluorescence signals at 620 nm (Cryptate) and 665 nm (XL665) were read using a BMG microplate reader. The ratio of the fluorescence signals, i.e., (665 nm/620 nm)×10000, in each well was calculated, and the ratio represented the degree of the kinase activity.

T3 sequence (P04629 33-796): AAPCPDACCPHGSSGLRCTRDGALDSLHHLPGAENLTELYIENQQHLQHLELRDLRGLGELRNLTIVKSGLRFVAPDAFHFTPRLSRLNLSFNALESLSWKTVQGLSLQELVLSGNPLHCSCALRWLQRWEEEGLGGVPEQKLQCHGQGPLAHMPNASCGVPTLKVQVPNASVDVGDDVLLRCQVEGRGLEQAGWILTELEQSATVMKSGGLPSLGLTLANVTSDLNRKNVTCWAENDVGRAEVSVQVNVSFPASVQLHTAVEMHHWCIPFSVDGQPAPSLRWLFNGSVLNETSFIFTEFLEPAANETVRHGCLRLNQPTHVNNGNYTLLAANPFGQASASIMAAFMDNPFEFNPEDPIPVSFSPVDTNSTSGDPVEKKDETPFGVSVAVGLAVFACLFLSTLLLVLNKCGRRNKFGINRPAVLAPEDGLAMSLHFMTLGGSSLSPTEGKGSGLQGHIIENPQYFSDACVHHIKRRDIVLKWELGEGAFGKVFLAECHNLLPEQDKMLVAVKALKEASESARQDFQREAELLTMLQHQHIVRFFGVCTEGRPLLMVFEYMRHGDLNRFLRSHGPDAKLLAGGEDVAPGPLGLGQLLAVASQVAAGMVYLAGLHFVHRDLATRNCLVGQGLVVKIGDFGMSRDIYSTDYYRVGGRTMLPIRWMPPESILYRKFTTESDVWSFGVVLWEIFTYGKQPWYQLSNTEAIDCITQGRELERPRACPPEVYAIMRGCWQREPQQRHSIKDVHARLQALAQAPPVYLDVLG
T1 sequence (Q08345 19-913): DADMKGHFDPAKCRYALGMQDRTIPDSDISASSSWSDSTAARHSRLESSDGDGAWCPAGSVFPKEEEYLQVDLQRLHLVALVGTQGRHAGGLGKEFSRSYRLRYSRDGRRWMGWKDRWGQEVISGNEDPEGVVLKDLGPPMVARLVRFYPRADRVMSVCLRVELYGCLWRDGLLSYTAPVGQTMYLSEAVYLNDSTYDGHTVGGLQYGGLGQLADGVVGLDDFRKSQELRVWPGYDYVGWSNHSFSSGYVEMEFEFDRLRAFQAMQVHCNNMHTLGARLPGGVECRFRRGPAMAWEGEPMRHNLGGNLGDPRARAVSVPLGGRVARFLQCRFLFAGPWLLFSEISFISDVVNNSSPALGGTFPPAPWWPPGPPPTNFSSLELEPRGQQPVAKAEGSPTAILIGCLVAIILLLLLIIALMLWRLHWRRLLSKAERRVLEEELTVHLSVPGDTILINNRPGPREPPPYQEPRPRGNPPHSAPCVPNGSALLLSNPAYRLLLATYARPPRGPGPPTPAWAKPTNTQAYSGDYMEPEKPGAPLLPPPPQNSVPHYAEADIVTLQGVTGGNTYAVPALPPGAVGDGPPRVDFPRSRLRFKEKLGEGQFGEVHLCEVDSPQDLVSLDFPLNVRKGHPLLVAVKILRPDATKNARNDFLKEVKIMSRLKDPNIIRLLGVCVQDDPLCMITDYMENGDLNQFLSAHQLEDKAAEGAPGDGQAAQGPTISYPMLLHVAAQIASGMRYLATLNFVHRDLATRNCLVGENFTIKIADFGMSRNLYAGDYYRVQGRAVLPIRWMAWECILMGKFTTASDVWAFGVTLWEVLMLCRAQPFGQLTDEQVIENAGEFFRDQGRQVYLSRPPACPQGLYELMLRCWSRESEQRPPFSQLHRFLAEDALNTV

Cc1c(C#Cc2cnc3ccc(N4CCC(O)CC4)nn23)cccc1C(=O)Nc1cc(Cl)cc(C(F)(F)F)c1 [compound 1, N-(3-chloro-5-(trifluoromethyl)phenyl)-3-((6-(4-hydroxypiperidin-1-yl)imidazo[1,2-b]pyridazin-3-yl)ethynyl)-2-methylbenzamide]
4.4 nM: IC50 (TRKA)
ns (p>0.05): Clinical scores of dorsal skin, Significance level ([1]; 3 mpk p.o. once daily 22 days) | Pinna thickness change rate at time point, Significance level ([1]; day 3, 3 mpk p.o. once daily) | Pinna thickness change rate at time point, Significance level ([1]; day 3, 10 mpk p.o. once daily) | Pinna thickness change rate at time point, Significance level ([1]; day 5, 3 mpk p.o. once daily) | Pinna thickness change rate at time point, Significance level ([1]; day 5, 10 mpk p.o. once daily) | Pinna thickness change rate at time point, Significance level ([1]; day 7, 3 mpk p.o. once daily) | Pinna thickness change rate at time point, Significance level ([1]; day 7, 10 mpk p.o. once daily) | Pinna thickness change rate at time point, Significance level ([1]; day 12, 3 mpk p.o. once daily) | Pinna thickness change rate at time point, Significance level ([1]; day 12, 10 mpk p.o. once daily) | Pinna thickness change rate at time point, Significance level ([1]; day 14, 3 mpk p.o. once daily) | Pinna thickness change rate at time point, Significance level ([1]; day 17, 3 mpk p.o. once daily) | Pinna thickness change rate at time point, Significance level ([1]; day 17, 10 mpk p.o. once daily) | Pinna thickness change rate at time point, Significance level ([1]; day 19, 3 mpk p.o. once daily) | Pinna thickness change rate at time point, Significance level ([1]; day 21, 3 mpk p.o. once daily) | Rate of change in body weight, Significance level ([2]; 10 mpk p.o. once daily 22 days) | Rate of change in body weight, Significance level ([2]; 30 mpk p.o. once daily 22 days)
**** (****p<0.0001): Thickness of dermis layer of right ear, Significance level ([1]; 3 mpk p.o. once daily 22 days) | Rate of change in the thickness of the pinna of the right ear, Significance level ([1]; 10 mpk p.o. once daily 22 days) | Thickness of dermis layer of right ear, Significance level ([1]; 10 mpk p.o. once daily 22 days) | Rate of change in the thickness of the pinna of the right ear, Significance level ([1]; 30 mpk p.o. once daily 22 days) | Thickness of dermis layer of right ear, Significance level ([1]; 30 mpk p.o. once daily 22 days)
160 ± 34.18 cells per mm: Number of inflammatory cells per mm ([1]; 30 mpk p.o. once daily 22 days)
162 ± 18.31 cells per mm: Number of inflammatory cells per mm ([1]; 10 mpk p.o. once daily 22 days)
** (**p<0.01): Pinna thickness change rate at time point, Significance level ([1]; day 3, 30 mpk p.o. once daily) | Pinna thickness change rate at time point, Significance level ([1]; day 5, 30 mpk p.o. once daily) | Pinna thickness change rate at time point, Significance level ([1]; day 7, 30 mpk p.o. once daily) | Pinna thickness change rate at time point, Significance level ([1]; day 10, 10 mpk p.o. once daily) | Pinna thickness change rate at time point, Significance level ([1]; day 10, 30 mpk p.o. once daily) | Pinna thickness change rate at time point, Significance level ([1]; day 12, 30 mpk p.o. once daily) | Pinna thickness change rate at time point, Significance level ([1]; day 14, 10 mpk p.o. once daily) | Pinna thickness change rate at time point, Significance level ([1]; day 14, 30 mpk p.o. once daily) | Pinna thickness change rate at time point, Significance level ([1]; day 19, 10 mpk p.o. once daily) | Pinna thickness change rate at time point, Significance level ([1]; day 21, 10 mpk p.o. once daily) | Rate of change in body weight, Significance level ([2]; 3 mpk p.o. once daily 22 days)
*** (***p<0.001): Inflammatory cell content in right ear tissue, Significance level ([1]; 3 mpk p.o. once daily 22 days) | Inflammatory cell content in right ear tissue, Significance level ([1]; 10 mpk p.o. once daily 22 days) | Inflammatory cell content in right ear tissue, Significance level ([1]; 30 mpk p.o. once daily 22 days) | Clinical scores of dorsal skin, Significance level ([1]; 30 mpk p.o. once daily 22 days) | Pinna thickness change rate at time point, Significance level ([1]; day 19, 30 mpk p.o. once daily) | Pinna thickness change rate at time point, Significance level ([1]; day 21, 30 mpk p.o. once daily)
0.762 nM: IC50 (DDR1)
* (*p<0.05): Rate of change in the thickness of the pinna of the right ear, Significance level ([1]; 3 mpk p.o. once daily 22 days) | Thickness of epidermal layer of right ear, Significance level ([1]; 3 mpk p.o. once daily 22 days) | Clinical scores of dorsal skin, Significance level ([1]; 10 mpk p.o. once daily 22 days) | Thickness of epidermal layer of right ear, Significance level ([1]; 10 mpk p.o. once daily 22 days) | Thickness of epidermal layer of right ear, Significance level ([1]; 30 mpk p.o. once daily 22 days) | Pinna thickness change rate at time point, Significance level ([1]; day 10, 3 mpk p.o. once daily) | Pinna thickness change rate at time point, Significance level ([1]; day 17, 30 mpk p.o. once daily)
0.35 nM: IC50 (TRKC)
189 ± 27.25 cells per mm: Number of inflammatory cells per mm ([1]; 3 mpk p.o. once daily 22 days)
37.9 nM: IC50 (DDR2)
14.7 nM: IC50 (CSF1R)

CCCS(=O)(=O)N[C@H]1C[C@@H](N(C)c2ncnc3[nH]ccc23)C1 [Abrocitinib, reference compound]
236 ± 26.59 cells per mm: Number of inflammatory cells per mm ([1]; 17 mpk p.o. once daily 22 days)
** (**p<0.01): Pinna thickness change rate at time point, Significance level ([1]; day 10, 17 mpk p.o. once daily) | Pinna thickness change rate at time point, Significance level ([1]; day 14, 17 mpk p.o. once daily) | Pinna thickness change rate at time point, Significance level ([1]; day 19, 17 mpk p.o. once daily)
* (*p<0.05): Inflammatory cell content in right ear tissue, Significance level ([1]; 17 mpk p.o. once daily 22 days) | Clinical scores of dorsal skin, Significance level ([1]; 17 mpk p.o. once daily 22 days) | Pinna thickness change rate at time point, Significance level ([1]; day 12, 17 mpk p.o. once daily) | Pinna thickness change rate at time point, Significance level ([1]; day 21, 17 mpk p.o. once daily)
*** (***p<0.001): Thickness of dermis layer of right ear, Significance level ([1]; 17 mpk p.o. once daily 22 days)
ns (p>0.05): Thickness of epidermal layer of right ear, Significance level ([1]; 17 mpk p.o. once daily 22 days) | Pinna thickness change rate at time point, Significance level ([1]; day 3, 17 mpk p.o. once daily) | Pinna thickness change rate at time point, Significance level ([1]; day 5, 17 mpk p.o. once daily) | Pinna thickness change rate at time point, Significance level ([1]; day 7, 17 mpk p.o. once daily) | Pinna thickness change rate at time point, Significance level ([1]; day 17, 17 mpk p.o. once daily) | Rate of change in body weight, Significance level ([2]; 17 mpk p.o. once daily 22 days)
**** (****p<0.0001): Rate of change in the thickness of the pinna of the right ear, Significance level ([1]; 17 mpk p.o. once daily 22 days)
